Test system: transgenic soybean plants, Arabidopsis Q293S, event SDS-10204
Test: Greenhouse testing of transgenic soybean plants, Arabidopsis Q293S
Assay type: in vivo, Glycine max
Conditions: soybean SDS-10204, 5 days after herbicide treatment, average of 8 T1
From the text: Various methods for the production of stably transformed plants are well known in the art. Coumarone-derivative herbicide tolerant soybean (Glycine max) or corn (Zea mays) plants can be produced by a method described by Olhoft et al. (US patent 2009/0049567). Briefly, HPPD or HST encoding polynucleotides are cloned into a binary vector using standard cloning techniques as described by Sambrook et al. (Molecular cloning (2001) Cold Spring Harbor Laboratory Press). The final vector construct contains an HPPD or HST encoding sequence flanked by a promoter sequence (e.g. the ubiquitin promoter (PcUbi) sequence) and a terminator sequence (e.g. the nopaline synthase terminator (NOS) sequence) and a resistance marker gene cassette (e.g. AHAS) (FIG. 2). Optionally, the HPPD or HST gene can provide the means of selection. Agrobacterium-mediated transformation is used to introduce the DNA into soybean's axillary meristem cells at the primary node of seedling explants. After inoculation and co-cultivation with Agrobacteria, the explants are transferred to shoot induction medium without selection for one week. The explants are subsequently transferred to shoot induction medium with 1-3 μM imazapyr (Arsenal) for 3 weeks to select for transformed cells. Explants with healthy callus/shoot pads at the primary node are then transferred to shoot elongation medium containing 1-3 μM imazapyr until a shoot elongates or the explant dies. After regeneration, transformants are transplanted to soil in small pots, placed in growth chambers (16 hr day/8 hr night; 25° C. day/23° C. night; 65% relative humidity; 130-150 mE m−2 s−1) and subsequently tested for the presence of the T-DNA via Taqman analysis. After a few weeks, healthy, transgenic positive, single copy events are transplanted to larger pots and allowed to grow in the growth chamber. Transformation of corn plants is done by a method described by McElver and Singh (WO 2008/124495). Plant transformation vector constructs containing HPPD or HST sequences are introduced into maize immature embryos via Agrobacterium-mediated transformation. Transformed cells are selected in selection media supplemented with 0.5-1.5 μM imazethapyr for 3-4 weeks. Transgenic plantlets are regenerated on plant regeneration media and rooted afterwards. Transgenic plantlets are subjected to TaqMan analysis for the presence of the transgene before being transplanted to potting mixture and grown to maturity in greenhouse. Arabidopsis thaliana is transformed with HPPD or HST sequences by floral dip method as described by McElver and Singh (WO 2008/124495). Transgenic Arabidopsis plants are subjected to Tag Man analysis for analysis of the number of integration loci. Transformation of Oryza sativa (rice) are done by protoplast transformation as described by Peng et al. (U.S. Pat. No. 6,653,529)
Transgenic plants expressing heterologous HPPD or HST enzymes are tested for tolerance against coumarone-derivative herbicides in greenhouse experiments.
For post emergence treatment, the test plants are first grown to a height of 3 to 15 cm, depending on the plant habit, and only then treated with the herbicides. For this purpose, the test plants are either sown directly and grown in the same containers, or they are first grown separately and transplanted into the test containers a few days prior to treatment.
Depending on the species, the plants are kept at 10-25° C. or 20-35° C. The test period extends over 3 weeks. During this time, the plants are tended and their response to the individual treatments is evaluated. […] Tolerance to coumarone-derivative herbicides can also be assessed in Arabidopsis. In this case transgenic Arabidopsis thaliana plants are assayed for improved tolerance to coumarone-derivative herbicides in 48-well plates. Seeds are surface sterilized by stirring for 5 min in ethanol+water (70+30 by volume), rinsing one time with ethanol+water (70+30 by volume) and two times with a sterile, deionized water. […]

SMILES | Injury evaluation, scale of 1-100, bleaching phenotype (6.25 g/ha) | Injury evaluation, scale of 1-100, bleaching phenotype (25 g/ha) | Injury evaluation, scale of 1-100, bleaching phenotype (100 g/ha) | Injury evaluation, scale of 1-100, bleaching phenotype (2.5 g/ha) | Injury evaluation, scale of 1-100, bleaching phenotype (10 g/ha) | Injury evaluation, scale of 1-100, bleaching phenotype (40 g/ha)
Cc1c(C(=O)c2cnn(C)c2O)ccc(S(C)(=O)=O)c1C1=NOCC1 [Topramezone, reference compound] | 10 | 17 | 21 |  |  | 
CC1(C)c2cccnc2C(O)=C(c2ccc(Cl)nc2Cl)S1(=O)=O [Inhibitor 2, 7-(2,6-dichloro-3-pyridyl)-5,5-dimethyl-6,6-dioxo-thiopyrano[4,3-b]pyridin-8-ol] |  |  |  | 1 | 4 | 21
